Results published in patent publication US9976170B2, “Method for evaluating bacterial cell wall integrity” (UNIVERSIDAD AUTONOMA DE MADRID, priority 2011, dated 2018).
Converted amounts (≈) assume the structure as drawn.

Legend:
Type in all cases: cell-based
[1] = tested on: Acinetobacter baumannii, imipenem- and ceftazidime-resistant strain; test: MIC by microdilution and/or E-test
From the text: (§1) The strains and the antibiotics used were: • Gram+ • Enterococcus faecalis.
(§2) The doses of antibiotic applied were 0, the MIC determined in the Microbiology Laboratory by means of the microdilution and/or E-test technique, and those of the cutoff points of sensitivity and resistance indicated by the Clinical and Laboratory Standards Institute (CLSI) for each strain. A dose 10 times higher than the MIC was also used.

[2] = tested on: Acinetobacter baumannii, imipenem-sensitive strain with intermediate sensitivity to ceftazidime; test: MIC by microdilution and/or E-test
From the text: as §1, §2

[3] = tested on: Escherichia coli, ampicillin- and ceftazidime-resistant strain; test: MIC by microdilution and/or E-test
From the text: as §1, §2

[4] = tested on: Escherichia coli, ceftazidime-sensitive strain with intermediate sensitivity to ampicillin; test: MIC by microdilution and/or E-test
From the text: as §1, §2

[5] = tested on: Acinetobacter baumannii, imipenem- and ceftazidime-resistant strain; test: technique for evaluating cell wall integrity (lysis solution, nucleoid release, fluorescence microscopy); details: 60 minutes
Method: (§3) Different bacterial strains grown on a dish with Mueller-Hinton medium for 24 hours were subsequently exposed to a β-lactam antibiotic for 60 minutes in Mueller-Hinton liquid medium at 37° C., under stirring, and were finally processed by means of the technique for evaluating cell wall integrity according to the present invention.
as §2

[6] = tested on: Acinetobacter baumannii, imipenem-sensitive strain with intermediate sensitivity to ceftazidime; test: as above; details: 60 minutes
Method: as §3, §2

[7] = tested on: Escherichia coli, ampicillin- and ceftazidime-resistant strain; test: as above; details: 60 minutes
Method: as §3, §2

[8] = tested on: Escherichia coli, ceftazidime-sensitive strain with intermediate sensitivity to ampicillin; test: as above; details: 60 minutes
Method: as §3, §2

CC(C)(O/N=C(\C(=O)N[C@@H]1C(=O)N2C(C(=O)[O-])=C(C[n+]3ccccc3)CS[C@H]12)c1csc(N)n1)C(=O)O [ceftazidime]
MIC [1]: > 32 µg/mL
MIC [2]: 12 µg/mL (≈ 22 µM)
MIC [3]: 32 µg/mL (≈ 58.5 µM)
MIC [4]: 1 µg/mL (≈ 1.83 µM)
background of extracellular DNA fragments ([5]; 2.560 μg/mL): same background persists
cells lysed with nucleoids with fragmented DNA ([5]; 2.560 μg/mL): 25%
cells not lysed ([5]; 2.560 μg/mL): 5%
cells with a large halo ([5]; 2.560 μg/mL): 63.5%
cells with a small halo ([5]; 2.560 μg/mL): 6.5%
very elongated and filamentous cells ([5]; 8 μg/mL): 22%
background of extracellular DNA fragments ([5]; 256 μg/mL): subtle background
cells not lysed ([5]; 256 μg/mL): 4.7%
cells with a small halo ([5]; 256 μg/mL): 63%
heavily lysed cells ([5]; 256 μg/mL): 32.3%
background of extracellular DNA fragments ([5]; 20 and 32 μg/mL): without background
cells with a large halo ([5]; 20 and 32 μg/mL): 1.5%
cells with a small halo ([5]; 20 and 32 μg/mL): 84.5%
filamentous cells ([5]; subsequent doses (20, 32, 256, 2.560 μg/mL)): 90%
background of extracellular DNA fragments ([6]; 8 μg/mL): without background
filamentous cells ([6]; 8 μg/mL): 82%
lysed cells with a small halo ([6]; 8 μg/mL): 40%
lysed cells with nucleoid with fragmented DNA ([6]; 8 μg/mL): 1%
filamentous cells ([6]; 12 μg/mL (MIC) and 20 μg/mL): 95%
background of extracellular DNA fragments ([6]; 12 μg/mL (MIC)): subtle background
lysed cells with a large halo ([6]; 12 μg/mL (MIC)): 1.5%
lysed cells with a small halo ([6]; 12 μg/mL (MIC)): 94.5%
non-lysed cells ([6]; 12 μg/mL (MIC)): 4%
lysed cells with a large halo ([6]; 20 μg/mL): 3%
lysed cells with a small halo ([6]; 20 μg/mL): 91.5%
non-lysed cells ([6]; 20 μg/mL): 5.5%
background of extracellular DNA fragments ([6]; 32 μg/mL): more background
elongated cells ([6]; 32 μg/mL): 90%
lysed cells with a large halo ([6]; 32 μg/mL): 6%
lysed cells with a small halo ([6]; 32 μg/mL): 88%
non-lysed cells ([6]; 32 μg/mL): 6%
background of extracellular DNA fragments ([6]; 120 μg/mL): extensive background
filamentous cells ([6]; 120 μg/mL): 91%
lysed cells with a large halo ([6]; 120 μg/mL): 23%
lysed cells with a small halo ([6]; 120 μg/mL): 67%
lysed cells with nucleoid with fragmented DNA ([6]; 120 μg/mL): 36%
non-lysed cells ([6]; 120 μg/mL): 7%
filamentous cells ([7]; 8 μg/mL): 13%
well lysed cells ([7]; 8 μg/mL): 1%
background of extracellular DNA fragments ([7]; 20 μg/mL): without background
filamentous cells ([7]; 20 μg/mL): 99%
non-lysed cells ([7]; 20 μg/mL): 94%
well lysed cells ([7]; 20 μg/mL): 5%
background of extracellular DNA fragments ([7]; 32 μg/mL (MIC)): subtle background
empty capsules ([7]; 32 μg/mL (MIC)): 1%
filamentous cells ([7]; 32 μg/mL (MIC)): 98%
lysed cells with nucleoid with fragmented DNA ([7]; 32 μg/mL (MIC)): 3%
non-lysed cells ([7]; 32 μg/mL (MIC)): 92%
well lysed cells ([7]; 32 μg/mL (MIC)): 4%
background of extracellular DNA fragments ([7]; 320 μg/mL): subtle background
cells lysed with nucleoid with fragmented DNA ([7]; 320 μg/mL): 0.5%
filamentous cells ([7]; 320 μg/mL): 99%
heavily lysed cells ([7]; 320 μg/mL): 3.5%
moderately lysed cells ([7]; 320 μg/mL): 95%
non-lysed cells ([7]; 320 μg/mL): 1%
background of extracellular DNA fragments ([8]; 1 μg/mL (MIC)): some background
filamentous cells ([8]; 1 μg/mL (MIC)): 99%
heavily lysed cells ([8]; 1 μg/mL (MIC)): 97%
background of extracellular DNA fragments ([8]; 8 μg/mL): more background
background of extracellular DNA fragments ([8]; 10 μg/mL): extensive background
empty capsules ([8]; 10 μg/mL): 10.5%
lysed cells with nucleoid with fragmented DNA ([8]; 10 μg/mL): 11%
well lysed cells ([8]; 10 μg/mL): 76.5%
empty capsules ([8]; 20 and 32 μg/mL): 25.3%
lysed cells with nucleoid with fragmented DNA ([8]; 20 and 32 μg/mL): 20%
non-lysed cells ([8]; 20 and 32 μg/mL): 2%
well lysed cells ([8]; 20 and 32 μg/mL): 52.7%
